Our source for the IC50 and Km values is paper PMC2844520 (The AAPS journal, 2010).

Data set [1] has as its target T1, Monoacylglycerol lipase (MAGL) (Mus musculus, UniProt O35678).
T1 sequence (O35678 1-303): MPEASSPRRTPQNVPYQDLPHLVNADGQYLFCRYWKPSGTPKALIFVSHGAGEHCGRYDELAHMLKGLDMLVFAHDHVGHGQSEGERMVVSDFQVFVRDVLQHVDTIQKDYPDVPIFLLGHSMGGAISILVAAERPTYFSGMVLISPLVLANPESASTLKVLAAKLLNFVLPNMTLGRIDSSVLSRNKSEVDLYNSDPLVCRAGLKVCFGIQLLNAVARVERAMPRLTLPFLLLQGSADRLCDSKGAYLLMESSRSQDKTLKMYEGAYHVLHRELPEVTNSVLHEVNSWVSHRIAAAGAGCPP
Nature of the data set: inhibition of 3H-2-OG hydrolysis in MAGL-transfected COS-7 lysate. Type of data set: biochemical.

Substrate in data set [2]: CCCCC/C=C\C/C=C\C/C=C\C/C=C\CCCC(=O)SCC(O)CO
Type of data set: biochemical, Mus musculus. Conditions: hydrolysis abolished by mutation of catalytic serine […] to alanine.

Broadly, the IC50 is the concentration that gives 50% inhibition. Low readings indicate higher potency, high ones lower potency. In data set [1], `CCCCC/C=C\C/C=C\C/C=C\C/C=C\CCCCN1C(=O)C=CC1=O` [NAM, N-arachidonyl maleimide] showed an IC50 of 45.7 nM. In other words, the double-digit nanomolar range.

B1: Monoacylglycerol lipase (MAGL) (Mus musculus) (protein)
chain: T1 sequence (O35678 1-303)
The Km is the concentration of substrate that gives half-maximal velocity. Take B1: the Km in data set [2] is 67.9 µM.
